One series has as its system naïve CD4+ T cells. The series can be described thus: Human regulatory T cell differentiation assay. It counts as cell-based. As to conditions: 3 mM, 6 days. Here is the method: Peripheral blood mononuclear cells (PBMCs) from whole blood donated by health volunteers were separated by Ficoll-Paque gradient centrifugation and naïve CD4^+ T cells were subsequently isolated using magnet beads (EasySep™ Human Naïve CD4^+ T Cell Isolation Kit, Cambridge, Mass.). For regulatory T cell (Treg) differentiation assay, naïve CD4^+ T cells were cultured (1-10×10^4 cells) in CTS OpTmizer medium for 6 days and stimulated with 5 ng/ml TGF-β, 100 U/ml IL-2, and ImmunoCult™ Human […] T Cell Activator; Stemcell #10990) with/without our Compounds. Cell viability was determined using a viability dye (eBioscience Fixable Viability Dye eFluor 780: ThermoFisher 65-0865-14) at 1:500 dilution. The cells were gated for Treg, defined as Live, CD11c^−, CD14^−, CD19^−, CD8^−, CD4^+, CD3^+, CD25^+, FOXP3^+. Percent (%) Tregs were calculated as percentage of CD4^+, CD25^+, FOXP3^+ cells over total CD4^+ T cells. Statistical analysis was performed with GraphPad Prism Software Using One-Way ANOVA.

The subject of another series is Mouse 3T3-L1 cells. The series can be described thus: Mouse adipocyte lipolysis assay. It counts as cell-based. As to conditions: Mus musculus, 3T3-L1; 3 mM, 24 hours; read-out: Lipolysis Free Fatty Acids % DMSO. Here is the method: Once the cells became confluent, they were seeded into a tissue culture treated 96 well plate. […] After 14 days of differentiation, cells were treated with compounds of interest. After 24 hours post-treatment, the cell viability was assessed using CellTiter-Glo Luminescent Cell Viability Assay from Promega, and lipolysis was determined using Lipolysis Assay Kit from ZenBio.

A further series has as its system Mouse myocyte. Nature of the series: Mouse myocyte lipolysis assay. It counts as cell-based. As to conditions: Mus musculus; 3 mM; read-out: Free glycerol % DMSO. Here is the method:
Cells were obtained from ATCC and cultured in Dulbecco's Modified Eagle's medium (DMEM) containing 20% fetal bovine serum and 1% penicillin/streptomycin at 37° C. in an incubator with 5% CO2. Once the cells became confluent, they were seeded into a tissue culture treated 96 well plate. The next day, the medium containing DMEM with 2% equine serum was used to start differentiation. Once cells were fully differentiated, they were treated with indicated compounds.

The subject of another series is Male DIO mice. Nature of the series: In vivo evaluation for glucose disposal and lipidemia in DIO mice (Example 11). The conditions noted are these: for Fasting blood glucose levels (time 0 from OGTT): 28 days, 16 hour fast; for glucose AUC (0-120 min): OGTT day 28, glucose 2.0 g/kg PO. The procedure: The DIO mice were prepared by feeding male C57BL/6 mice a high fat diet (HFD, Research Diets D12492) from 6-14 weeks of age. DIO mice were housed individually and maintained on the HFD through the duration of study. A twelve-hour light cycle was maintained with room temperature maintained at 22-25° C. All of the mice were acclimated to the facility for 5 days prior to starting the study.
Following 5 days of facility acclimation, DIO mice were randomized into 8 groups of 10 based on body weight and blood glucose for assignment to treatment, as shown in Table 9:
All treatments were administered admixed in HFD (Research Diets, New Brunswick N.J.) and were provided ad libitum for 30 days. Drinking water for group 7 was supplemented with 1, 3 Butanediol at 3% concentration.
Body weight was recorded at baseline and twice weekly thereafter. Feed and water intakes were recorded each Monday, Wednesday, and Friday.
Blood samples (<3 μL) were obtained one hour post dose by tail clip at baseline and weekly thereafter for measurement of fed blood glucose by StatStrip. Additional anti-coagulated blood samples (100 μl, EDTA di-potassium salt) were obtained by tail clip one hour post-dose at baseline, day 14 and day 30. Anti-coagulated samples were quick frozen and stored on dry ice.
Animals were subjected to a 16 hour fast for performance of an oral glucose tolerance test (OGTT) on day 28. Blood samples were obtained via tail clip just prior to (8 am) and 15, 30, 60, 90, and 120 minutes post-glucose load (2.0 g/kg, PO) for assay of whole blood glucose (StatStrip). Feed was returned following last sample.
Animals were terminated on day 30-31 using CO2 inhalation and induction of pneumothorax. Terminal blood samples were obtained by cardiac puncture. Whole blood was processed to serum and analyzed for serum cholesterol, triglycerides, high density lipoprotein (HDL), low density lipoprotein (LDL) and non-esterified fatty acids (NEFA) using AU480 clinical analyzer.
Organ weights (liver, spleen, subcutaneous fat, inguinal fat, abdominal fat, and epididymal fat) were recorded. Sections of each fat were frozen or fixed in 4% paraformaldehyde/PBS, pH 6.9; Fat samples were placed on dry ice. Fixed liver samples (4% paraformaldehyde) were sent to Premier Laboratories for H&E staining and scoring for steatosis, inflammation and fibrosis. Spleen samples were prepared in ice cold 5% bovine serum albumin (BSA) in PBS or 4% paraformaldehyde. Sections of brain, heart, lung, and small and large intestine were fixed in 10% formalin.
All data are represented as group mean±SEM. Data were analyzed using JMP (SAS software). All normalizations were calculated using terminal body weight.
Baseline differences among groups were identified using Tukey-Kramer Hsd<0.05. Treatment effects compared to control were determined using Oneway ANOVA (*, p<0.05) followed by Dunnett's test where appropriate.

The nature of series [1]: Assay 1. Stability in Simulated Gastric Fluid (SGF). It counts as in vitro ADME. As to conditions: 1 μM, 37° C., SGF pH 1.6 with pepsin. In a few lines:
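Acylated compounds at a final 1 μM (diluted from 1 mM DMSO stock) were incubated at 37 °C in SGF of pH 1.6 NaCl buffer with FaSSIF powder and 0.1 mg/mL pepsin. Aliquots were quenched with acetonitrile at T0 and regular intervals, and degradation rates were determined by LC/MS.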

A short description of series [2]: Assay 2. Stability in Simulated Intestinal Fluid (SIF). It counts as in vitro ADME. The conditions noted are these: 1 μM, 37° C., SIF pH 6.7 with pancreatin. In a few lines: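 Acylated compounds at 1 μM (from 1 mM DMSO stock) in fresh SIF: FaSSIF with pancreatin in pH 6.7 phosphate buffer, agitated at 37 °C. Aliquots from T0 onward quenched with 1 volume acetonitrile; LC/MS gives degradation rates.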

For another series, the system named is C57BL/6 DIO mice. The series can be described thus: DIO animal model of NAFLD/NASH in young mice (Example 16). It counts as in vivo. More on the design: OGTT: unit not given beside the values. As to conditions: for % Weight change: 12 weeks; for OGTT: Day 82, 2 g/kg glucose PO; for % Difference compared to ctrl: weight change vs HFD ctrl. An excerpt:
Species (number, sex, age/weight): C57BL/6 DIO mice (120+10 spares, male, ˜18 weeks of age) from Jackson Laboratories, Stock #380050. Note: 18 week old DIO mice sent sent with a minimum body weight of 39 grams. Spare animals may be used to replace study animals, as required, euthanized after completion of dose administration or transferred to Testing Facility Docket 07-12.
Cage Side Observations (Animal Health Checks): Cage side animal's health checks will be performed at least once daily to check for general health, mortality and moribundity. Clinical Observations: Clinical observations will be performed per exception. Body Weights: Body weights for all animals will be recorded prior to Day 1 and at least twice weekly thereafter, including prior to necropsy ([…]).
Dose Administration: Dosing for Groups 3-8 will be provided ad libitum in the diet. Dosing for Groups 9 (Saline) and 10 (Semaglutide at 123.4 μg/kg) in a 5 mL/kg volume, will begin on Day 1, and be performed 3 times weekly for 12 weeks by SC administration. Residual Test Article: All residual high fat diets will be frozen at nominally −20° C., and at the end of the study, several pellets of the diets for groups 2-9 (in 50-ml conical tubes) will be shipped to Sponsor, and the rest will be discarded. Residual control diets (group 1) will be stored ambient, and at the end of the study, several pellets in a 50 mL conical tube will be shipped to Sponsor and the rest is discarded. Residual test material for Group 10 will be stored at nominally −70° C., and at the end of the study, an aliquot of test material will be shipped to Sponsor, and the rest will be discarded.
Oral Glucose Tolerance Test (oGTT) On Day 82 (+/−2 days) an oGTT will be performed. Following an approximate 4 hour fast, 2 g/kg glucose (50% Dextrose diluted in sterile water for injection to a concentration of 0.4 g/mL) will be administered at 5 mL/kg via oral gavage (PO). Blood will be collected pre-glucose challenge (t=0) and at t=15, 30, 60, 90, and 120 minutes following the glucose challenge. Whole blood glucose levels will be evaluated at all time points using a handheld glucometer and will be reported in the Data Submission. This will be scheduled on a Tuesday or Thursday to avoid Group 9/10 dosing days.
Oral Glucose Tolerance Test (oGTT) On Day 82 (+/−2 days) an oGTT will be performed. Following an approximate 4 hour fast, 2 g/kg glucose (50% Dextrose diluted in sterile water for injection to a concentration of 0.4 g/mL) will be administered at 5 mL/kg via oral gavage (PO). Blood will be collected pre-glucose challenge (t=0) and at t=15, 30, 60, 90, and 120 minutes following the glucose challenge. Whole blood glucose levels will be evaluated at all time points using a handheld glucometer and will be reported in the Data Submission.

Consider `CCCC(=O)O` [Butyric Acid], for which the “Cell viability % DMSO” value in the series on naïve CD4+ T cells was “− (<90%: −)”. The activity at 3000 µM in the series on naïve CD4+ T cells (Homo sapiens, CD4+ T, 144 h, read-out: Treg induction % DMSO) is less than 90%.

As to `CCCC(=O)O` [Butyric acid], the values for the activity at 3000 µM in the series with Mouse 3T3-L1 cells and with Mouse myocyte were 50 to 70% and less than 50%, respectively.

For the molecule `O=C(CCCc1ccccc1)Oc1cc(OC(=O)CCCc2ccccc2)c2c(c1)O[C@H](c1cc(OC(=O)CCCc3ccccc3)c(OC(=O)CCCc3ccccc3)c(OC(=O)CCCc3ccccc3)c1)[C@H](OC(=O)c1cc(OC(=O)CCCc3ccccc3)c(OC(=O)CCCc3ccccc3)c(OC(=O)CCCc3ccccc3)c1)C2` [Compound 5, [(2R,3R)-5,7-bis(4-phenylbutanoyloxy)-2-[3,4,5-tris(4-phenylbutanoyloxy)phenyl]chroman-3-yl] 3,4,5-tris(4-phenylbutanoyloxy)benzoate], the “Fasting blood glucose levels (time 0 from OGTT)” value in the series on Male DIO mice (0.6% in HFD) was 107.3 ± 5.3 mg/dL; in the series with Male DIO mice (2% in HFD), 104.7 ± 4.3 mg/dL; in the series with Male DIO mice (6% in HFD), 95.1 ± 4.4 mg/dL. Further, the entries for the “glucose AUC (0-120 min)” value in the series on Male DIO mice (0.6% in HFD), with Male DIO mice (2% in HFD) and in the series on Male DIO mice (6% in HFD) were 29628.0 ± 1791.7 mg/dL/min, 27648.8 ± 866.3 mg/dL/min and 26049.0 ± 455.4 mg/dL/min, respectively.

As for `CCCC(=O)Oc1cc(OC(=O)CCC)c2c(=O)c(OC(=O)CCC)c(-c3ccc(OC(=O)CCC)c(OC(=O)CCC)c3)oc2c1` [Compound 15, [2-butanoyloxy-4-[3,5,7-tri(butanoyloxy)-4-oxo-chromen-2-yl]phenyl] butanoate], in series [1], the “Assay 1 (SGF) (% Remaining @ 1 hours)” value is listed as “C (C: >75% of the tested compound remaining)”. In series [2], the “Assay 2 (SIF) (% @ Remaining 4 hours)” value was “B (B: 25-75% of the tested compound remaining)”. In the series with C57BL/6 DIO mice (ad libitum in HFD), the “% Weight change” value is reported as 23% and the “% Difference compared to ctrl” value is reported as 0%. Further, in the series with C57BL/6 DIO mice (ad libitum in HFD, ctrl HFD), the OGTT was determined as 32722 and the “% HbA1c” value is 6.50%.

In the case of `CCCC(=O)OCC[C@@H](C)OC(=O)Oc1ccc(/C=C/c2cc(OC(=O)O[C@H](C)CCOC(=O)CCC)cc(OC(=O)O[C@H](C)CCOC(=O)CCC)c2)cc1` [Compound 78, (3R,3′R)-((((5-((E)-4-(((((R)-4-(butyryloxy)butan-2-yl)oxy)carbonyl)oxy)styryl)-1,3-phenylene)bis(oxy))bis(carbonyl))bis(oxy))bis(butane-3,1-diyl) dibutyrate], the “Assay 1 (SGF) (% Remaining @ 1 hours)” value in series [1] is “C (C: >75% of the tested compound remaining)”. For the same molecule, the “Assay 2 (SIF) (% @ Remaining 4 hours)” value in series [2] is “A (A: <25% of the tested compound remaining)”. In addition, in the series on C57BL/6 DIO mice (ad libitum in HFD), the “% Weight change” value is given as 21% and the “% Difference compared to ctrl” value was −2%. Also, in the series with C57BL/6 DIO mice (ad libitum in HFD, ctrl HFD), the OGTT was 29944 and the “% HbA1c” value is on record as 6.14%.

As to `CCCC(=O)O[C@H]1OC[C@H](OC(=O)CCC)[C@H](OC(=O)CCC)[C@H]1OC(=O)CCC` [Compound 184, (2R,3R,4S,5S)-3,4,5-tris(butanoyloxy)oxan-2-yl Butanoate], in the series on C57BL/6 DIO mice (ad libitum in HFD), the “% Weight change” value is recorded as 11% and the “% Difference compared to ctrl” value is −12%. Besides, in the series with C57BL/6 DIO mice (ad libitum in HFD, ctrl HFD), the OGTT was 27257 and the “% HbA1c” value is on record as 5.96%.

Consider Semaglutide [reference compound], for which, in the series on C57BL/6 DIO mice (123.4 μg/kg SC 3 times weekly for 12 weeks, ctrl Saline), the “% HbA1c” value is reported as 7.90%. Besides, the OGTT in the series on C57BL/6 DIO mice (123.4 μg/kg SC 3 times weekly, ctrl Saline) was 18214.

The values are drawn from US10953027B2, “Active agents and methods of their use for the treatment of metabolic disorders and nonalcoholic fatty liver disease” (Flagship Pioneering Innovations V, Inc., priority 2018, dated 2021).
